Experimental data published in patent publication US8063225B2, “Tricyclic compound derivatives useful in the treatment of neoplastic diseases, inflammatory disorders and immunomodulatory disorders” (Chembridge Corporation, priority 2006, dated 2011).

Legend:
InsR = target: T1, InsR (Homo sapiens, UniProt P06213); experiment: Tyrosine kinase assay (Kinase-Glo or AlphaScreen), InsR; conditions: biochemical tyrosine kinase assay
T1 construct: 6×His- or GST-tagged kinase domain fragments of the corresponding RTKs expressed in baculovirus system; host or cells: baculovirus system
Procedure: (§1) To determine inhibition of several tyrosine kinases, such as IGF1R, InsR, Alk, TrkA and Jak2, kinase assays are conducted using either Kinase-Glo (Promega) or AlphaScreen (PerkinElmer) kinase assay platforms. The Kinase-Glo Luminescent Kinase Assay is a homogeneous method for measuring kinase activity by determining the amount of ATP remaining after a kinase reaction. The luminescent signal is proportional to the amount of ATP and inversely proportional to the amount of kinase activity. Tyrosine kinase PT66 AlphaScreen Assay is a high-sensitivity homogeneous, anti-phosphotyrosine antibody-mediated luminescent proximity method measuring, incorporation of phosphate in synthetic poly(Glu-Tyr) substrate. The kinase preparations used consist of purified recombinant, 6×His- or GST-tagged kinase domain fragments of the corresponding RTKs expressed in baculovirus system.
(§2) The IGF1R tyrosine kinase is assayed in Kinase-Glo ATP depletion assay using the synthetic polymer poly(Glu-Tyr, 4:1) (Sigma Chemicals) as a phosphoacceptor substrate. Each reaction mixture consists of a total volume of 10 μl and contains 40 ng of the enzyme, 5 μg of poly(Glu-Tyr), 10 μM of ATP and variable concentrations of test compounds. The mixtures also contain 50 mM Tris-HCl, pH 7.5; 5 mM MgCl2; 5 mM MnCl2; 2 mM DTT and 0.01% Tween 20. The reaction mixtures are incubated at 37° C. for 60 minutes and residual concentration of ATP in the mixture is determined by adding luciferase-containing Kinase-Glo (Promega) development reagent and counting luminescence levels using Fusion Universal Microplate Analyzer (PerkinElmer). Tested compounds are dissolved in dimethyl sulfoxide to a stock concentration of 10 mM and are typically evaluated in the assay at eight concentrations in 1 nM to 20 μM range, each in quadruplicate. […] IC50 values are derived by non-linear regression analysis using Prism 3.0 software (Graphpad Software). Other tyrosine kinases are assayed according to the same protocol after titrating amount of the enzyme to provide optimal signal-to-noise ratio and no more than 30% of total ATP consumption in the reaction conditions used.
(§3) The IGF1R tyrosine kinase is assayed in Phosphotyrosine (PT66 or PT 100) AlphaScreen chemiluminescent assay (PerkinElmer) according to the manufacturerer's recommendations. Each kinase reaction mixture consists of a total volume of 15 μl and contains 0.1-1 ng of the enzyme, 7 ng of biotinylated poly(Glu-Tyr) (Cis-Bio), 10 μM of ATP and variable concentrations of test compounds. The mixtures also contain 50 mM Tris-HCl, pH 7.5; 5 mM MgCl2; 5 mM MnCl2; 2 mM DTT and 0.01% Tween 20. The reaction mixtures are incubated at room temperature for 30 minutes. Ten (10) μl of the mixture of […] and donor beads (as supplied by the manufacturer) is then added to the reaction and the incubation is continued for an additional 60 minutes.

Jak2 = target: T2, Jak2 (Homo sapiens, UniProt O60674); experiment: Tyrosine kinase assay (Kinase-Glo or AlphaScreen), Jak2; conditions: biochemical tyrosine kinase assay
T2 construct: 6×His- or GST-tagged kinase domain fragments of the corresponding RTKs expressed in baculovirus system; host or cells: baculovirus system
Procedure: as §1, §2, §3

Alk = target: T3, Alk (Homo sapiens, UniProt Q9UM73); experiment: Tyrosine kinase assay (Kinase-Glo or AlphaScreen), Alk; conditions: biochemical tyrosine kinase assay
T3 construct: 6×His- or GST-tagged kinase domain fragments of the corresponding RTKs expressed in baculovirus system; host or cells: baculovirus system
Procedure: as §1, §2, §3

K562 = experiment: Cell proliferation inhibition, Cell Titer-Glo, K562; format: cell-based; conditions: Homo sapiens; cell proliferation assay, K562 cells
From the text: (§4) IGF1R and other tyrosine kinase inhibitors can inhibit the proliferation of certain cancer cell lines indicating their possible therapeutic utility for treating the corresponding cancer types. Cancer cell lines of interest and control normal lines, including CHO, HEK293, BA/F3, COLO205, PC3, DU145, MCF7, Panc1, ACHN, Hep G2, H460, K562, TT, U87-MG, CAOV-3, SK-MEL5, Karpas 299 and human multiple myeloma cell lines H929, MM1s, MM1r, UTMC2, CPM2, KMS11, My5, KMS12PE, My7, JJN3, KMS18, U266, SKMM2, RPMI-8226 are plated in white, clear-bottomed 384-well cell culture plates at 2500-5000 cells per well and supplied with dilutions of tested compounds After a desired period of time (typically 3 days), the number of viable cells is quantitated by using Cell Titer-Glo Luminescent Cell Viability Assay (Promega), a cell proliferation assay system based on detection of total amount of ATP present as a measure of cell metabolic activity. The plated cells are mixed with the Cell Titer-Glo developing reagent and counted in a luminescence multiwell plate reader according to the standard manufacturer's protocol to generate IC50 curves for cell proliferation inhibition. Results are typically reported as percent of growth (% viability =(OD72h(compound)−ODday0))/(OD72h(no compound)−ODday0). Alternatively, viable cells are quantitated by using the conventional colorimetric MTT assay. The MTT assay is based on the cleavage of the yellow tetrazolium salt MTT to purple formazan crystal by metabolic active cells. The formazan is then solubilized, and the concentration determined by optical density at 570 nm. The cells plated and incubated with a compound as described above are supplemented with the solution of MTT and incubated for 2-3 hours. The growth medium is removed and dimethyl sulfoxide is added into each well to dissolve the formazan. The absorbance is measured on an ELISA plate reader with a test wavelength of 570 nm and a background subtraction wavelength of 630 nm to obtain sample signal (OD570-OD630). […] The results are reported in terms of IC50 value for a particular compound and a cell line in the standard 3-day proliferation assay using Cell Titer-Glo. […] The results are reported in terms of IC50 value for a particular compound and a cell line in the standard 3-day proliferation assay using MTT assay.

Ba/F3 = experiment: Cell proliferation inhibition, Cell Titer-Glo, Ba/F3; format: cell-based; conditions: Mus musculus, BaF3; cell proliferation assay, Ba/F3 cells
From the text: as §4

Karpas-299 = experiment: Cell proliferation inhibition, Cell Titer-Glo, Karpas-299; format: cell-based; conditions: Homo sapiens; cell proliferation assay, Karpas-299 cells
From the text: as §4

IGF1R tyrosine kinase = target: T4, IGF1R tyrosine kinase (Homo sapiens, UniProt P08069); experiment: IGF1R tyrosine kinase assay (Kinase-Glo ATP depletion or PT66/PT100 AlphaScreen); conditions: biochemical tyrosine kinase assay
T4 construct: 6×His- or GST-tagged kinase domain fragments of the corresponding RTKs expressed in baculovirus system; host or cells: baculovirus system
Procedure: as §1, §2, §3

T2 sequence (O60674 849-1124 limits assumed, species assumed): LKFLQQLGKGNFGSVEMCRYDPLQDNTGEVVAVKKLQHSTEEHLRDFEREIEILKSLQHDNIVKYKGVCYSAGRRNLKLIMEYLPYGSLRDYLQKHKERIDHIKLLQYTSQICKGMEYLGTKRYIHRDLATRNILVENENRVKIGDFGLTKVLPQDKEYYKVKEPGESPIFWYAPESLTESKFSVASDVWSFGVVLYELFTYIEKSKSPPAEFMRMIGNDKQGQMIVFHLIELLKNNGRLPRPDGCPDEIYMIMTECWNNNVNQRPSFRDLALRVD
T3 sequence (Q9UM73 1116-1392 limits assumed, species assumed): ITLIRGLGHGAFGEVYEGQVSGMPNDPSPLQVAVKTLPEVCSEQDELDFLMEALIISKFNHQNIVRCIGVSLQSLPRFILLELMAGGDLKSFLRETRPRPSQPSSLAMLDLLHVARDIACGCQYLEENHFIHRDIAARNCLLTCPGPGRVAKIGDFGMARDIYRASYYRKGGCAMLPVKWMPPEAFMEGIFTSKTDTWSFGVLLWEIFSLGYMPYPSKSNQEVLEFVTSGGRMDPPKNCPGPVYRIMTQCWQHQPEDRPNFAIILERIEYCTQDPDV
T1 sequence (P06213 1023-1298 limits assumed, species assumed): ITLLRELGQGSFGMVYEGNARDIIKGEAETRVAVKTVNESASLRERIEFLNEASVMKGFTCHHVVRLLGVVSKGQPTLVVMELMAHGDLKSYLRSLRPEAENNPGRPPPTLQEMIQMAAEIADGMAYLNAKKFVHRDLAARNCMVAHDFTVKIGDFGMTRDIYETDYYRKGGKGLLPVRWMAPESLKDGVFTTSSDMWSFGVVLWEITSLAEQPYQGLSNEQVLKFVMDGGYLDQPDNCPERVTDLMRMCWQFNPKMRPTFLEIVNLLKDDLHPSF
T4 sequence (P08069 999-1274 limits assumed): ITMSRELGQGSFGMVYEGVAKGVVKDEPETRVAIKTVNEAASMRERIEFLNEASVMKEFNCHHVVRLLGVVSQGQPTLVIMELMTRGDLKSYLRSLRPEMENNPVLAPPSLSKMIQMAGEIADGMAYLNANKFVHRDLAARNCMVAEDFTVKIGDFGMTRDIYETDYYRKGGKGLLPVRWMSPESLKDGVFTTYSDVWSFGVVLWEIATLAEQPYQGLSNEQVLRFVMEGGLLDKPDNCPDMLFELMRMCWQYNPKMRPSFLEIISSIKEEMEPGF

SMILES	IC50 (InsR) [µM]	IC50 (Jak2) [µM]	IC50 (Alk) [µM]	IC50 (K562) [µM]	IC50 (Ba/F3) [µM]	IC50 (Karpas-299) [µM]	IC50 (IGF1R tyrosine kinase) [µM]
CN1CCC(N2C(=O)c3cc4nc(-c5c(NCC(O)COc6ccc(Cl)cc6)cc[nH]c5=O)[nH]c4cc3C2=O)CC1 (stereo not shown) [compound 39]	0.5 to 5	0.5 to 5	0.5 to 5	0.5 to 5	0.5 to 5	0.5 to 5	0.5 to 5
COc1cc(C#N)ccc1OC[C@H](O)CNc1ccnc(O)c1-c1nc2cc3c(cc2[nH]1)C(=O)N(C1CCN(C)CC1)C3=O [compound 50]	5 to 15	0.5 to 5	5 to 15	> 15	> 15	> 15	0.5 to 5
CN1CCC(N2C(=O)c3cc4nc(-c5c(N[C@@H](CO)Cc6ccccc6)cc[nH]c5=O)[nH]c4cc3C2=O)CC1 [compound 5]	0.5 to 5	0.5 to 5	< 0.5	0.5 to 5	0.5 to 5	0.5 to 5	0.5 to 5
CC(Nc1cc[nH]c(=O)c1-c1nc2cc3c(cc2[nH]1)C(=O)N(C1CCN(C)CC1)C3=O)C1COc2ccccc2O1 (stereo not shown) [compound 40]	5 to 15	0.5 to 5	5 to 15	5 to 15	0.5 to 5	5 to 15	5 to 15

The next lines start with the values.

IC50 (InsR) [µM]	IC50 (Jak2) [µM]	IC50 (Alk) [µM]	IC50 (K562) [µM]	IC50 (Ba/F3) [µM]	IC50 (Karpas-299) [µM]	IC50 (IGF1R tyrosine kinase) [µM]	SMILES
0.5 to 5	0.5 to 5	5 to 15	> 15	> 15	> 15	< 0.5	Cc1ccc(OC[C@H](O)CNc2ccnc(O)c2-c2nc3cc4c(cc3[nH]2)C(=O)N(C2CCN(C)CC2)C4=O)c(C)n1 [compound 68]
< 0.5	0.5 to 5	0.5 to 5	> 15	> 15	> 15	< 0.5	Cc1c(Cl)cccc1OC[C@H](O)CNc1cc[nH]c(=O)c1-c1nc2cc3c(cc2[nH]1)C(=O)N(CC1CCN(CCO)CC1)C3=O [compound 119]
0.5 to 5	5 to 15	5 to 15	> 15	> 15	> 15	0.5 to 5	Cc1ncccc1OC[C@H](O)CNc1ccnc(O)c1-c1nc2cc3c(cc2[nH]1)C(=O)N(C1CCN(C)CC1)C3=O [compound 71]
> 15	> 15	> 15	> 15	> 15	> 15	> 15	CCN(CC)C(=O)c1ccc(OC[C@H](O)CNc2ccnc(O)c2-c2nc3cc4c(cc3[nH]2)C(=O)N(C2CCN(C)CC2)C4=O)c(OC)c1 [compound 51]
5 to 15	0.5 to 5	5 to 15	> 15	> 15	> 15	5 to 15	CN1CCC(N2C(=O)c3cc4nc(-c5c(NC[C@@H](O)COc6cccnc6)ccnc5O)[nH]c4cc3C2=O)CC1 [compound 70]
> 15	> 15	0.5 to 5	> 15	> 15	> 15	> 15	Cc1ccc(OCC(O)CNc2ccnc(O)c2-c2nc3cc4c(cc3[nH]2)C(=O)N(CCCn2cccn2)C4=O)c(C)c1 (stereo not shown) [compound 63]
